Source: patent US20240050466A1, “CELLULAR HEALTH NUTRITIONAL PRODUCT” (GLAXOSMITHKLINE CONSUMER HEALTHCARE HOLDINGS (US) LLC, priority 2020, published 2024)

Legend:
[1] = Summary of bioefficacy, plausibility and criticality of micronutrients in F2; details: grade Low/medium/High, key not given
Excerpt: Summary Table of Bioefficacy, Plausibility and Criticality of Micronutrients in F2

[2] = system: gene expression; details: hesperidin intake in humans; cited from earlier work
[3] = cited from earlier work
[4] = in vivo, cited from earlier work

Molecule | Bioefficacy [1] | also measured
NCCC(=O)N[C@@H](Cc1cnc[nH]1)C(=O)O [Carnosine, L-Carnosine] | Low | 
COc1ccc([C@@H]2CC(=O)c3c(O)cc(O[C@@H]4O[C@H](CO[C@@H]5O[C@@H](C)[C@H](O)[C@@H](O)[C@H]5O)[C@@H](O)[C@H](O)[C@H]4O)cc3O2)cc1O [Hesperidin, hesperidin] | medium | number of genes whose expression is modulated [2]: about 1,819 genes
CC1=C[C@H](O)CC(C)(C)[C@H]1/C=C/C(C)=C/C=C/C(C)=C/C=C/C=C(C)/C=C/C=C(C)/C=C/C1=C(C)C[C@@H](O)CC1(C)C [Lutein, trans-lutein] | medium | 
CC(C)=CCC/C(C)=C/C=C/C(C)=C/C=C/C(C)=C/C=C/C=C(C)/C=C/C=C(C)/C=C/C=C(\C)CCC=C(C)C [Lycopene, lycopene] | High | 
CC(=O)Oc1c(C)c(C)c2c(c1C)CCC(C)(CCC[C@H](C)CCC[C@H](C)CCCC(C)C)O2 (stereo partly drawn) [RRRDL-alpha-Tocopherol Acetate] |  | safe upper limit for adults [3]: 273 mg/day
C[Se]CC[C@H](N)C(=O)O [Selenium, selenomethionine] | medium | reference dose (RfD) or NOAEL for Se ([4]; human): 350 µg/day; reference dose (RfD) or NOAEL for Se per body weight [4]: 5 ug Se/(kg body per day)
O=C1O[C@H]([C@@H](O)CO)C(O)=C1O [Vitamin C, ascorbic acid] | medium | 
Vitamin E | Low | 
